Data reported in patent publication US20260199240A1, “BIOMEDICAL APPLICATIONS OF AZOBENZENE-BASED LIPIDOIDS” (Trustees of Tufts College, priority 2022, published 2026).

What was measured:
[1] = Photoisomerization of Azo lipidoids in DMSO (UV-Vis absorption); format: physicochemical; conditions: for UV irradiation time until spectral changes level off (photostationary state): UV 365 nm, 5.40 mW/cm^2; for additional Vis irradiation time that reverses the spectral change: Vis >400 nm, 20 mW/cm^2
Experimental: Azo lipidoid was prepared as 50 μM solution in anhydrous dimethyl sulfoxide (DMSO). The sample was irradiated with UV (365 nm for 6 s) and Vis light (>400 nm for 6 s), respectively. The power densities for 365 and >400 nm was 5.40 and 20 mW/cm^2, respectively.
SAzo lipidoid was prepared as 30 μM solution in anhydrous dimethyl sulfoxide (DMSO). TAzo lipidoid was prepared as 15 μM solution in DMSO. These samples were irradiated with UV (365 nm for 6 s) and Vis light (>400 nm for 6 s), respectively. The power densities for 365 and >400 nm are 5.40 and 20 mW/cm^2, respectively.

[2] = Critical micelle concentration in aqueous solution; format: physicochemical
4T1 tumor cells = assay: Cell cytotoxicity using CCK-8 assay; format: cell-based, mouse
Experimental: In vitro cytotoxicity was assessed by the standard CCK-8 assay. To test the cytotoxicity of DSPC-Azo@GOx with or without UV/Vis light irradiation, 4T1 tumor cells were seeded in the basolateral chamber of a 24-well transwell plate at a density of 10^5 cells per well and cultured in 5% CO2 at 37° C. for overnight (16 h). Then, DSPC-Azo@GOx was added to the upper chamber. Then, the samples were irradiated using the UV/Vis light (irradiated for 5 min every 8 hours). After three irradiation, the cell viability was measured using CCK-8 kit according to the manufacturer's instruction.

[3] = helper lipid; cited from earlier work

Compound	UV irradiation time until spectral changes level off (photostationary state) [1]	additional Vis irradiation time that reverses the spectral change [1]	Tm (phase transition temperature) [3]	headgroup surface area [3]	further results
CCCCCCCCCCCC(=O)Nc1ccc(/N=N/c2ccc(C[N+](C)(C)C)cc2)cc1 [Azo lipidoid]	6 s	6 s	–	–	critical micelle concentration (CMC) [2]: ≈ 30 μM; dose dependent cell viability (4T1 tumor cells; 4T1 cells, 24 h incubation): relatively good biocompatibility
CCCCCCCCCCCCCC(=O)OC[C@H](COP(=O)([O-])OCC[N+](C)(C)C)OC(=O)CCCCCCCCCCCCC [DMPC, dimyristoylphosphatidylcholine]	–	–	24.1 °C	~ 0.665 nm^2	–
CCCCCCCCCCCCCCCC(=O)OC[C@H](COP(=O)([O-])OCC[N+](C)(C)C)OC(=O)CCCCCCCCCCCCCCC [DPPC, dipalmitoylphosphatidylcholine]	–	–	41.3 °C	~ 0.665 nm^2	–
CCCCCCCCCCCCCCCCCC(=O)OC[C@H](COP(=O)([O-])OCC[N+](C)(C)C)OC(=O)CCCCCCCCCCCCCCCCC [DSPC, distearoylphosphatidylcholine]	–	–	55 °C	~ 0.430 nm^2	–
CCCCCCCCCCCC(=O)Nc1ccc(/N=N/c2ccc(C[N+](C)(C)CC[N+](C)(C)Cc3ccc(/N=N/c4ccc(NC(=O)CCCCCCCCCCC)cc4)cc3)cc2)cc1 [TAzo lipidoid]	6 s	6 s	–	–	–
Glucose Oxidase [GOx]	–	–	–	–	cell viability with versus without UV/Vis light treatment (4T1 tumor cells; dialysis setup, 24 h): no significant differences in cell viabilities
